According to patent publication US9023865B2, “Compounds that are ERK inhibitors” (Merck Sharp & Dohme Corp., priority 2011, dated 2015):

Each compound was assayed against Active Human ERK2 (hERK2) (Homo sapiens (Human), UniProt P28482) (assay: Active Human ERK2 (hERK2) Activity Assay (IMAP-FP)). Conditions: phosphorylated active hERK2, 30 μM ATP; average; read-out: ERK 2 Human average IC50.
Format: biochemical
Procedure, shortened: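 Reaction contains 0.5 nM activated hERK2, 900 nM unlabeled plus 80 nM labeled peptide and 30 μM ATP, run 60 min. Quenched with IMAP binding beads in buffer with 24 mM NaCl; fluorescence polarization read after 60 min binding equilibration.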

Active Human ERK2 (hERK2), sequence (P28482 whole entry): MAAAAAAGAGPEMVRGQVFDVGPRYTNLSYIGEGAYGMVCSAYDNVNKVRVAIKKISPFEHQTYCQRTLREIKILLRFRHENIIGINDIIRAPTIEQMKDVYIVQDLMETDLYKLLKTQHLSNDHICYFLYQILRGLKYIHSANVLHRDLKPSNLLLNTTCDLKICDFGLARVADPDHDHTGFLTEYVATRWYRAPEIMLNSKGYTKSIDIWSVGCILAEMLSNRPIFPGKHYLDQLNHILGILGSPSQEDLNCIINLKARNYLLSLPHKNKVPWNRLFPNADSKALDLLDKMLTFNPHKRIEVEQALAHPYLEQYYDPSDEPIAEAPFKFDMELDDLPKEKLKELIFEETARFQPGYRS

IC50	SMILES
0.535 nM	C[C@@H](NC(=O)Nc1cc2[nH]nc(-c3cnn(CC(C)(C)O)c3)c2cn1)c1ccccc1 [Example 639]
3.21 nM	COC[C@@H](NC(=O)Nc1cc2[nH]nc(-c3ccc(C#N)nc3)c2cn1)c1ccc(F)cc1 [Example 303]
0.236 nM	COC[C@@H](NC(=O)Nc1cc2[nH]nc(-c3ccncc3)c2cn1)c1ccccc1 [Example 545]
1.84 nM	C[C@@H](NC(=O)Nc1cc2[nH]nc(-c3ccnc(F)c3)c2cn1)c1ccc(Cl)cc1 [Example 57, 1-[(1R)-1-(4-chlorophenyl)ethyl]-3-[3-(2-fluoropyridin-4-yl)-1H-pyrazolo[4,3-c]pyridin-6-yl]urea]
0.72 nM	Cc1nc2ccc(-c3n[nH]c4cc(NC(=O)N[C@H](C)c5ccccc5)ncc34)cc2o1 [Example 652]
0.245 nM	Cc1cc(-c2n[nH]c3cc(NC(=O)NCc4cccc(F)c4)ncc23)ccn1 [Example 53, 1-(3-fluorobenzyl)-3-[3-(2-methylpyridin-4-yl)-1H-pyrazolo[4,3-c]pyridin-6-yl]urea]
1.06 nM	Cc1cc(-c2n[nH]c3cc(NC(=O)N[C@H](C)c4cc(Cl)ccn4)ncc23)ccn1 [Example 229]
0.309 nM	C[C@@H](NC(=O)Nc1cc2[nH]nc(-c3ccc4nnn(C)c4c3)c2cn1)c1ccc(F)cc1 [Example 260]
3.07 nM	Cc1cc(-c2n[nH]c3c(Cl)c(NC(=O)N[C@H](C)c4ccccc4)ncc23)ccn1 [Example 571, (R)-1-(7-chloro-3-(2-methylpyridin-4-yl)-1H-pyrazolo[4,3-c]pyridin-6-yl)-3-(1-phenylethyl)urea]
0.221 nM	COC[C@@H](NC(=O)Nc1cc2[nH]nc(-c3ccc4nnn(C)c4c3)c2cn1)c1ccccc1 [Example 697]
0.432 nM	Cc1cc(-c2n[nH]c3cc(NC(=O)N[C@H](C)c4ccc(F)c(Cl)c4)ncc23)ccn1 [Example 69, 1-[(1R)-1-(3-chloro-4-fluorophenyl)ethyl]-3-[3-(2-methylpyridin-4-yl)-1H-pyrazolo[4,3-c]pyridin-6-yl]urea]
56.1 nM	C[C@@H](NC(=O)Nc1cc2[nH]nc(-c3cccc(Cl)c3)c2cn1)c1ccc(F)c(Cl)c1 [Example 76, 1-[(1R)-1-(3-chloro-4-fluorophenyl)ethyl]-3-[3-(3-chlorophenyl)-1H-pyrazolo[4,3-c]pyridin-6-yl]urea]
26.2 nM	CCS(=O)(=O)c1ccc(-c2n[nH]c3cc(NC(=O)N[C@H](C)c4ccc(F)cc4)ncc23)cn1 [Example 311]

Second part, the compound before the results:

SMILES	IC50
Cc1cc(-c2n[nH]c3cc(NC(=O)NC4c5ccccc5CC4O)ncc23)ccn1 (stereo not shown) [Example 332]	1.34 nM
Cc1cc(-c2n[nH]c3cc(NC(=O)NC4CCOC(C)(C)C4)ncc23)ccn1 (stereo not shown) [Example 196]	23.6 nM
Cc1cc(-c2n[nH]c3cc(NC(=O)NC4(c5ccccn5)CCC4)ncc23)ccn1 [Example 355]	1.54 nM
Cc1cc(-c2n[nH]c3cc(NC(=O)NC(C)CC4CCCO4)ncc23)ccn1 (stereo not shown) [Example 239]	5.88 nM
Cc1cc(-c2n[nH]c3cc(NC(=O)NCC4CC(C)(C)OC(C)(C)C4)ncc23)ccn1 [Example 370]	1.45 nM
CCCCNC(=O)Nc1cc2[nH]nc(C3CC3)c2cn1 [Example 156]	42.2 nM
Cc1cc(-c2n[nH]c3cc(NC(=O)NCc4scnc4C)ncc23)ccn1 [Example 418]	2.75 nM
COC[C@@H](NC(=O)Nc1cc2[nH]nc(C3CC3(F)F)c2cn1)c1ccccc1 (stereo partly shown) [Example 163]	4.89 nM
CSC1CN(C(=O)c2n[nH]c3cc(NC(=O)N[C@H](C)c4ccccc4)ncc23)C1 [Example 118]	501 nM
Cc1cc(-c2n[nH]c3cc(NC(=O)NCC4CNC(c5ccccc5)C4)ncc23)ccn1 (stereo not shown) [Example 409]	5.69 nM
Cc1cc(-c2n[nH]c3cc(NC(=O)NCC4CCCCO4)ncc23)ccn1 (stereo not shown) [Example 469]	1.21 nM
Cc1cc(-c2n[nH]c3c(F)c(NC(=O)N[C@H](CO)c4ccccc4)ncc23)ccn1 [Example 544]	1.28 nM

Same assay, conditions: read-out: AERK2 IC50 (Active human ERK2 Activity Assay)

IC50	SMILES
0.2 to 1.7 nM	C[C@@H](NC(=O)Nc1cc2[nH]nc(-c3ccnc(F)c3)c2cn1)c1ccc(Cl)cc1 [Example 57, 1-[(1R)-1-(4-chlorophenyl)ethyl]-3-[3-(2-fluoropyridin-4-yl)-1H-pyrazolo[4,3-c]pyridin-6-yl]urea]
0.2 to 1.7 nM	Cc1cc(-c2n[nH]c3cc(NC(=O)NCc4cccc(F)c4)ncc23)ccn1 [Example 53, 1-(3-fluorobenzyl)-3-[3-(2-methylpyridin-4-yl)-1H-pyrazolo[4,3-c]pyridin-6-yl]urea]
0.2 to 1.7 nM	Cc1cc(-c2n[nH]c3cc(NC(=O)N[C@H](C)c4ccc(F)c(Cl)c4)ncc23)ccn1 [Example 69, 1-[(1R)-1-(3-chloro-4-fluorophenyl)ethyl]-3-[3-(2-methylpyridin-4-yl)-1H-pyrazolo[4,3-c]pyridin-6-yl]urea]
